Measurements reported in patent US20230085307A1, “PYRIDAZINONE COMPOUND AND HERBICIDE” (NISSAN CHEMICAL CORPORATION, priority 2019, published 2023).

Columns and labels:
wild oat [1] = assay: Test Example 4: herbicidal effect by soil treatment (Table 19, symbol I); format: in vivo, wild oat (Avena fatua); settings: amount of applied herbicide 320 g/ha
Method in brief: (§1)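 Seeds were sown in sterilized diluvial soil and covered with about 1.5 cm of soil. An emulsion formulation diluted with water to a predetermined herbicide amount was sprayed evenly onto the soil surface. Plants grew in a greenhouse at 25° C. to 30° C., and the effect was scored three weeks after application using criteria from an earlier test.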

blackgrass [2] = assay: Test Example 4: herbicidal effect by soil treatment (Table 19, symbol J); format: in vivo, blackgrass (Alopecurus myosuroides); settings: amount of applied herbicide 320 g/ha
Method in brief: as §1

redroot pigweed [3] = assay: Test Example 4: herbicidal effect by soil treatment (Table 19, symbol N); format: in vivo, redroot pigweed (Amaranthus retroflexus); settings: amount of applied herbicide 320 g/ha
Method in brief: as §1

blackgrass [4] = assay: Test Example 5: herbicidal effect by foliage application, plastic box (Table 20, symbol J); format: in vivo, blackgrass (Alopecurus myosuroides); settings: foliage application, 320 g/ha, three weeks after application
Method in brief: (§2)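 Plants sown in sterilized diluvial soil and grown 14 days in a greenhouse at 25° C to 30° C, then sprayed on the foliage with the compound's emulsion diluted in water to a predetermined herbicide amount. Injury to weeds and crops scored three weeks after application on a visual rating scale.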

persian speedwell [5] = assay: Test Example 5: herbicidal effect by foliage application, plastic box (Table 20, symbol R); format: in vivo, Persian speedwell (Veronica persica); settings: foliage application, 320 g/ha, three weeks after application
Method in brief: as §2

Chinese sprangletop = assay: Test Example 3: herbicidal effect by foliage application, Wagner pot (Table 18, symbol D); format: in vivo, chinese sprangletop (Leptochloa chinensis); settings: 320 g/ha
Method in brief: (§3)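 Plants were sown in alluvial soil held under 0.1–0.5 cm standing water and grown 14 days in a greenhouse at 25–30 °C. An emulsifiable formulation, water-diluted to the set dose, was then sprayed onto the foliage, and effects were scored three weeks later using previously defined criteria.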

velvetleaf [6] = assay: Test Example 5: herbicidal effect by foliage application, plastic box (Table 20, symbol M); format: in vivo, velvetleaf (Abutilon theophrasti); settings: foliage application, 320 g/ha, three weeks after application
Method in brief: as §2

Italian ryegrass [7] = assay: Test Example 4: herbicidal effect by soil treatment (Table 19, symbol K); format: in vivo, Italian ryegrass (Lolium multiflorum); settings: amount of applied herbicide 320 g/ha
Method in brief: as §1

chickweed [8] = assay: Test Example 5: herbicidal effect by foliage application, plastic box (Table 20, symbol P); format: in vivo, common chickweed (Stellaria media); settings: foliage application, 320 g/ha, three weeks after application
Method in brief: as §2

green foxtail [9] = assay: Test Example 5: herbicidal effect by foliage application, plastic box (Table 20, symbol G); format: in vivo, green foxtail (Setaria viridis); settings: foliage application, 320 g/ha, three weeks after application
Method in brief: as §2

windgrass [10] = assay: Test Example 5: herbicidal effect by foliage application, plastic box (Table 20, symbol L); format: in vivo, windgrass (Apera spica-venti); settings: foliage application, 320 g/ha, three weeks after application
Method in brief: as §2

rice flat sedge = assay: Test Example 3: herbicidal effect by foliage application, Wagner pot (Table 18, symbol E); format: in vivo, rice flat sedge (Cyperus iria); settings: 320 g/ha
Method in brief: as §3

velvetleaf [11] = assay: Test Example 4: herbicidal effect by soil treatment (Table 19, symbol M); format: in vivo, velvetleaf (Abutilon theophrasti); settings: amount of applied herbicide 320 g/ha
Method in brief: as §1

windgrass [12] = assay: Test Example 4: herbicidal effect by soil treatment (Table 19, symbol L); format: in vivo, windgrass (Apera spica-venti); settings: amount of applied herbicide 320 g/ha
Method in brief: as §1

barnyard grass [13] = assay: Test Example 3: herbicidal effect by foliage application, Wagner pot (Table 18, symbol H); format: in vivo, barnyard grass (Echinochloa crus-galli); settings: 320 g/ha
Method in brief: as §3

chickweed [14] = assay: Test Example 4: herbicidal effect by soil treatment (Table 19, symbol P); format: in vivo, common chickweed (Stellaria media); settings: amount of applied herbicide 320 g/ha
Method in brief: as §1

redroot pigweed [15] = assay: Test Example 5: herbicidal effect by foliage application, plastic box (Table 20, symbol N); format: in vivo, redroot pigweed (Amaranthus retroflexus); settings: foliage application, 320 g/ha, three weeks after application
Method in brief: as §2

southern crabgrass [16] = assay: Test Example 4: herbicidal effect by soil treatment (Table 19, symbol F); format: in vivo, southern crabgrass (Digitaria ciliaris); settings: amount of applied herbicide 320 g/ha
Method in brief: as §1

wild oat [17] = assay: Test Example 5: herbicidal effect by foliage application, plastic box (Table 20, symbol I); format: in vivo, wild oat (Avena fatua); settings: foliage application, 320 g/ha, three weeks after application
Method in brief: as §2

lambsquarters [18] = assay: Test Example 4: herbicidal effect by soil treatment (Table 19, symbol O); format: in vivo, lambsquarters (Chenopodium album); settings: amount of applied herbicide 320 g/ha
Method in brief: as §1

southern crabgrass [19] = assay: Test Example 5: herbicidal effect by foliage application, plastic box (Table 20, symbol F); format: in vivo, southern crabgrass (Digitaria ciliaris); settings: foliage application, 320 g/ha, three weeks after application
Method in brief: as §2

barnyard grass [20] = assay: Test Example 5: herbicidal effect by foliage application, plastic box (Table 20, symbol H); format: in vivo, barnyard grass (Echinochloa crus-galli); settings: foliage application, 320 g/ha, three weeks after application
Method in brief: as §2

lambsquarters [21] = assay: Test Example 5: herbicidal effect by foliage application, plastic box (Table 20, symbol O); format: in vivo, lambsquarters (Chenopodium album); settings: foliage application, 320 g/ha, three weeks after application
Method in brief: as §2

green foxtail [22] = assay: Test Example 4: herbicidal effect by soil treatment (Table 19, symbol G); format: in vivo, green foxtail (Setaria viridis); settings: amount of applied herbicide 320 g/ha
Method in brief: as §1

Italian ryegrass [23] = assay: Test Example 5: herbicidal effect by foliage application, plastic box (Table 20, symbol K); format: in vivo, Italian ryegrass (Lolium multiflorum); settings: foliage application, 320 g/ha, three weeks after application
Method in brief: as §2

barnyard grass [24] = assay: Test Example 4: herbicidal effect by soil treatment (Table 19, symbol H); format: in vivo, barnyard grass (Echinochloa crus-galli); settings: amount of applied herbicide 320 g/ha
Method in brief: as §1

persian speedwell [25] = assay: Test Example 4: herbicidal effect by soil treatment (Table 19, symbol R); format: in vivo, Persian speedwell (Veronica persica); settings: amount of applied herbicide 320 g/ha
Method in brief: as §1

## CCCC(=O)Oc1c(C)nn(C)c(=O)c1-c1c(-c2ccc(OCC)nc2)sc2ccccc12 [1-077]
Wild oat [1]
  herbicidal effect rating, I: wild oat: 0 (Herbicidal rate of 5% or less (almost no effect))
Blackgrass [2]
  herbicidal effect rating, J: blackgrass: 0 (Herbicidal rate of 5% or less (almost no effect))
Redroot pigweed [3]
  herbicidal effect rating, N: redroot pigweed: 0 (Herbicidal rate of 5% or less (almost no effect))
Blackgrass [4]
  herbicidal effect grade, J: blackgrass: 1 (Herbicidal rate of 5% or more and less than 20%)
Persian speedwell [5]
  herbicidal effect grade, R: persian speedwell: 5 (Herbicidal rate of 90% or more (almost completely withered))
Chinese sprangletop
  herbicidal effect on D (Chinese sprangletop), rating 0-5: 1 (Herbicidal rate of 5% or more and less than 20%)
Velvetleaf [6]
  herbicidal effect grade, M: velvetleaf: 4 (Herbicidal rate of 70% or more and less than 90%)
Italian ryegrass [7]
  herbicidal effect rating, K: Italian ryegrass: 0 (Herbicidal rate of 5% or less (almost no effect))
Chickweed [8]
  herbicidal effect grade, P: chickweed: 3 (Herbicidal rate of 40% or more and less than 70%)
Green foxtail [9]
  herbicidal effect grade, G: green foxtail: 1 (Herbicidal rate of 5% or more and less than 20%)
Windgrass [10]
  herbicidal effect grade, L: windgrass: 0 (Herbicidal rate of 5% or less (almost no effect))
Rice flat sedge
  herbicidal effect on E (rice flat sedge), rating 0-5: 4 (Herbicidal rate of 70% or more and less than 90%)
Velvetleaf [11]
  herbicidal effect rating, M: velvetleaf: 0 (Herbicidal rate of 5% or less (almost no effect))
Windgrass [12]
  herbicidal effect rating, L: windgrass: 0 (Herbicidal rate of 5% or less (almost no effect))
Barnyard grass [13]
  herbicidal effect on H (barnyard grass), rating 0-5: 4 (Herbicidal rate of 70% or more and less than 90%)
Chickweed [14]
  herbicidal effect rating, P: chickweed: 4 (Herbicidal rate of 70% or more and less than 90%)
Redroot pigweed [15]
  herbicidal effect grade, N: redroot pigweed: 0 (Herbicidal rate of 5% or less (almost no effect))
Southern crabgrass [16]
  herbicidal effect rating, F: southern crabgrass: 0 (Herbicidal rate of 5% or less (almost no effect))
Wild oat [17]
  herbicidal effect grade, I: wild oat: 1 (Herbicidal rate of 5% or more and less than 20%)
Lambsquarters [18]
  herbicidal effect rating, O: lambsquarters: 0 (Herbicidal rate of 5% or less (almost no effect))
Southern crabgrass [19]
  herbicidal effect grade, F: southern crabgrass: 0 (Herbicidal rate of 5% or less (almost no effect))
Barnyard grass [20]
  herbicidal effect grade, H: barnyard grass: 2 (Herbicidal rate of 20% or more and less than 40%)
Lambsquarters [21]
  herbicidal effect grade, O: lambsquarters: 0 (Herbicidal rate of 5% or less (almost no effect))
Green foxtail [22]
  herbicidal effect rating, G: green foxtail: 0 (Herbicidal rate of 5% or less (almost no effect))
Italian ryegrass [23]
  herbicidal effect grade, K: Italian ryegrass: 1 (Herbicidal rate of 5% or more and less than 20%)
Barnyard grass [24]
  herbicidal effect rating, H: barnyard grass: 0 (Herbicidal rate of 5% or less (almost no effect))
Persian speedwell [25]
  herbicidal effect rating, R: persian speedwell: 4 (Herbicidal rate of 70% or more and less than 90%)
